In publication PMC6614837 (Nucleic Acids Research, 2019):

Experiments:
RNase P holoenzyme = target: T1, RNase P holoenzyme (Thermotoga maritima, UniProt Q9X1H4); assay: Displacement of pre-tRNA from the holoenzyme (BLI); format: binding, T. maritima; conditions: holoenzyme on Ni-NTA biosensors, compound 0–400 μM, then pre-tRNA
T1 construct: GST (cleaved yes); made in house; host or cells: E. coli BL21(DE3)pLysS
T1 sequence (Q9X1H4 1-117): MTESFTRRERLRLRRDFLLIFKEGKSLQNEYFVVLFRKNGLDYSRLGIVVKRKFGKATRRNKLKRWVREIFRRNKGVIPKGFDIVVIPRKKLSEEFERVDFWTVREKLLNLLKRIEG
Description: Real-time binding assays of the holoenzyme, P RNA, P protein, the substrate minihelix and the 5′-leader to individual compounds were performed by biolayer interferometry using an Octet RED96 system (ForteBio). For the holoenzyme or P RNA, a 5′ biotinylated RNA oligonucleotide with the sequence 5′biotin-CAUUCCAGACGAU was immobilized on Super Streptavidin (SSA) biosensors. Then, a modified P RNA or holoenzyme was added. The P RNA modification consisted of a sequence with part of the P1 stem sequence complementary to the biotinylated oligonucleotide (AUCGUCUGGA) (Supplementary Figure S23A). P1 is far from the active site or other regions involved in specific interactions (Supplementary Figure S23B) ([19]). The activity of this construct was indistinguishable from the wild-type holoenzyme. Alternatively, the holoenzyme was immobilized through the His-tagged P protein from T. maritima at 0.05 mg/ml (3.4 μM) on Ni-NTA biosensors. Control biosensors were used to subtract non-specific binding of compounds to the biosensor surface. All assay steps (immobilization, wash, baseline, association, and dissociation) were performed in 20 mM HEPES pH 7.4, 100 mM ammonium acetate, 10 mM MgCl2, 2.5% DMSO. The assays were performed on black bottom 96-well microplates (Greiner Bio-One 655209) in a total volume of 200 μl, at 30°C with orbital shaking at 1000 rpm. Experiments were controlled with the software Data Acquisition 8.2 (ForteBio, Inc.). Kinetic binding parameters were calculated using Data Analysis 8.2 (ForteBio, Inc.). After subtraction of reference biosensors, the binding curves were aligned to the X- and Y-axis and the association-dissociation inter-step curve in order to get a common baseline for the association and dissociation phases.
Figure 4. Characterization of the inhibition of T. maritima RNase P by purpurin. (A) Best global fit for inhibition of RNase P in the presence of varying concentrations of fluorescent Mh substrate. […] Symbols represent the mean ± standard error as determined from three independent experiments at each concentration. See also Supplementary Figure S18. […] Binding sensorgrams obtained by biolayer interferometry (BLI). RNase P holoenzyme at 400 nM was immobilized on Ni-NTA. […] Binding sensorgrams obtained by biolayer interferometry (BLI). RNase P holoenzyme was immobilized on Ni-NTA biosensors, incubated with purpurin at varying concentrations (0–400 μM), and then the association and dissociation pre-tRNA was monitored. […] See also Supplementary Figure S17.

[1] = tested on: 3'-biotinylated minihelix (Mh; pMini3bpUG) (RNA, hairpin) GAUCUGAAUGCGGAAACGCGCCAC; assay: biolayer interferometry; conditions: Mg2+ 10 mM, NH4+ 100 mM (ammonium acetate); 20 mM HEPES pH 7.4, DMSO, 30°C; highest concentration tested 1 mM
[2] = target: T2, RNase P holoenzyme from Thermotoga maritima (Thermotoga maritima, UniProt Q9X1H4); assay: Real-time fluorescence-based RNase P activity assay with bipartite pre-tRNA substrate; format: biochemical; conditions: fluorescent bipartite pre-tRNA substrate, holoenzyme 33 nM, 10% PEG 200 in place of DMSO
T2 construct: made in house
T2 sequence (Q9X1H4 1-117): T1 sequence (Q9X1H4 1-117)
Description: The reconstitution of the RNase P holoenzyme was performed as described in ([40],[19]). This protocol produces a homogeneous and functional ribozyme that can be crystallized by mixing P RNA and P protein in a 1:1.1 molar ratio in 1× TH buffer (33 mM Tris–HCl, 66 mM HEPES, pH 7.4) and 400 mM ammonium acetate (AmOAc). The mixture was heated to 95°C for 2 min in a water bath, then chilled on ice for 2 min, after which MgCl2 was added to a final concentration of 100 mM. […] This higher concentration was used in all experiments described herein. The holoenzyme was further incubated at 50°C for 10 min and 37°C for 40 min. The final concentration of holoenzyme was 333 nM (35.6 μg/ml of P RNA and 4.7 μg/ml of P protein).
The bipartite pre-tRNA substrate derived from pre-tRNA^Phe from T. maritima (Supplementary Figure S13) was designed for the ease of chemical synthesis and conceived from the fact that the anticodon loop is not required for RNase P recognition (Reiter et al.). As for the Mh substrate, fluorescent bipartite pre-tRNA was coupled to Black Hole Quencher 1 (BHQ1) at the 5′-end of the 5′ oligo, and to Alexa Fluor 488 at the 3′-end of the 3′ oligo (see Supplementary Table S1). The probes were purchased from Integrated DNA Technologies (IDT). A requested scale of 250 nmol yielded 27.4 nmol (0.36 mg) for the 5′ oligo and 3.8 nmol (50 μg) for the 3′ fluorescent oligo. Before use, the probes were diluted from a 100 μM stock (dissolved in water) and assembled by mixing and heating to 3.6 μM in activity buffer L (Tris–HCl pH 7.4 33 mM, HEPES 66 mM, 100 mM AmOAc and 10 mM MgCl2).
Reactions were performed in a total volume of 20 μl. Pipetting was done by hand using multichannel pipettes. First, an 18 μl reaction mixture containing 16.5 μl of activity buffer (H for Mh or L supplemented with 10% PEG 200 for bipartite pre-tRNA) and 270 nM (Mh) or 135 nM (bipartite pre-tRNA) (1.5 or 0.7 μl of the 3.6 μM stock) of the fluorescent substrate probe was pre-incubated on ice for at least 5 m in a black polystyrene 384-well microtiter microplate with a flat transparent bottom (Corning ref 3540). The holoenzyme was then added at a final concentration of 33 nM (2 μl of a 333 nM stock) in 1× TH buffer and mixed. Kinetic activity was monitored in a Synergy MX Multimode Detector (BioTek) at 37°C with rapid agitation. At least 20 readings were taken per well every 15 s. The probe was excited at 485 nm, and its emission was monitored at 535 nm with an integration time of 1 s. From the plots of relative fluorescent units (RFU) versus time, linear regression was used to determine the slopes in the linear portion of the curves, using at least 12 data points to obtain initial velocities. Non-linear fitting to obtain the Michaelis–Menten parameters was performed using GraphPad Prism® 6.01 software. […]

SMILES | Dose–response displacement of pre-tRNA (RNase P holoenzyme) | binding [1] | IC50 [2] [µM]
O=C1C=CC(=O)c2c(O)cccc21 [Juglone, 5-hydroxy-1,4-naphthoquinone] | No | no | 11.9 ± 1.7
O=C1C=C2CC3(O)COc4c(ccc(O)c4O)C3=C2C=C1O (stereo not drawn) [Hematein, 3,4,6a,10-tetrahydroxy-6a,7-dihydroindeno[2,1-c]chromen-9(6H)-one] | No | no | 87.9 ± 19.7
O=C1c2ccccc2C(=O)c2c(O)c(O)cc(O)c21 [Purpurin, 1,2,4-trihydroxyanthraquinone] | displaces bound pre-tRNA in a dose-response behavior and Yes | no | 13.1 ± 2.3
